Reference: US20250223284A1, “REVERSIBLE DPP1 INHIBITORS AND USES THEREOF” (Insmed Incorporated, priority 2023, published 2025)

Legend:
human DPP1 enzyme = human DPP1 enzyme (Homo sapiens (Human), UniProt P53634); assay: Human DPP1 Enzyme IC50 Assay; type: biochemical; settings: recombinant human DPP1 activated with cathepsin L, H-Gly-Arg-AMC substrate, 10 min pre-incubation at 37° C., MES pH 6.0
Procedure: Recombinant human DPP1 enzyme (R&D Systems; Minneapolis, MN) was first proteolytically processed into its mature form using recombinant human cathepsin L (R&D Systems) in a buffer consisting of 20 mM citric acid pH 4.5, 150 mM NaCl, 1 mM EDTA and 10 mM DTT. Test articles were applied to activated human DPP1 enzyme in Assay Buffer (25 mM MES pH 6.0, 50 mM NaCl, 5 mM DTT) in a total reaction volume of 125 μL. 25 μL of compound in Assay Buffer plus 5% DMSO was first added to 50 μL of activated human DPP1 enzyme at a concentration of 1 ng/μL and allowed to pre-incubate for 10 minutes at 37° C. after which 50 μL of 1000 μM H-Gly-Arg-AMC substrate (Bachem; St. Torrance, CA) was added, giving final substrate concentration of 400 µM and a final DMSO concentration of 1%. Substrate cleavage was measured for 90 minutes at 37° C., with fluorescence at Excitation/Emission 350/450 nm measured every 5 minutes. DPP1 concentration was interpolated based on its activity relative to a standard curve of activated human recombinant DPP1 enzyme. IC50 values for each compound were calculated via the XLFit (IDBS Version 5.3.1.3) Add-On to Microsoft Excel using the four parameter fit equation y={A+[(B−A)]/[1+((C/x)^D)]}, which appears as equation number 205 (4 Parameter Logistic Model or Sigmoidal Dose-Response Model) in XLFit. Default constraints were used for each Parameter. IC50 was defined as the compound concentration at which 50% of enzyme activity was inhibited when compared to the no-compound control.

mouse DPP1 enzyme = mouse DPP1 enzyme (Mus musculus (Mouse), UniProt P97821); assay: Mouse DPP1 Enzyme IC50 Assay; type: biochemical; settings: active mouse DPP1 enzyme, H-Gly-Arg-AMC substrate, 10 min pre-incubation at 37° C., MES pH 5.5
mouse DPP1 enzyme, sequence (P97821 25-134): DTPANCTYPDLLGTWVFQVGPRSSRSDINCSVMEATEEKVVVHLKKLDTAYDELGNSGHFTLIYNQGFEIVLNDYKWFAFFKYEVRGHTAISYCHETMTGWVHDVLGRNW
mouse DPP1 enzyme, sequence (P97821 231-393): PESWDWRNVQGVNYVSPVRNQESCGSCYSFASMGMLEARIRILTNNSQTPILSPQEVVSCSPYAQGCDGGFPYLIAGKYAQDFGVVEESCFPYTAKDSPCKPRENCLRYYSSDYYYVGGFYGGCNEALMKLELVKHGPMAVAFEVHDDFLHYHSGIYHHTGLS
mouse DPP1 enzyme, sequence (P97821 394-462): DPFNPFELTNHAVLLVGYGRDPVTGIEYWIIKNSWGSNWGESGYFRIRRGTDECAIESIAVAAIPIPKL
Procedure: Test articles were applied to active mouse DPP1 enzyme (R&D Systems; Minneapolis, MN) in Assay Buffer (50 mM MES pH 5.5, 50 mM NaCl, 5 mM DTT) in a total reaction volume of 125 μL. 25 μL of compound in Assay Buffer plus 5% DMSO was first added to 50 μL of active mouse DPP1 enzyme at a concentration of 62.5 pg/μL and allowed to pre-incubate for 10 minutes at 37° C. after which 50 μL of 1000 μM H-Gly-Arg-AMC substrate (Bachem; St. Torrance, CA) was added, giving final substrate concentration of 400 µM and a final DMSO concentration of 1%. Substrate cleavage was measured for 90 minutes at 37° C., with fluorescence at Excitation/Emission 350/450 nm measured every 5 minutes. DPP1 concentration was interpolated based on its activity relative to a standard curve of recombinant active mouse DPP1 enzyme. IC50 values for each compound were calculated via the XLFit (IDBS Version 5.3.1.3) Add-On to Microsoft Excel using the four parameter fit equation y=(A+((B−A)/(1+ ((C/x)^D)))), which appears as equation number 205 (4 Parameter Logistic Model or Sigmoidal Dose-Response Model) in XLFit. Default constraints were used for each Parameter. IC50 was defined as the compound concentration at which 50% of enzyme activity was inhibited when compared to the no-compound control.

human DPP1 enzyme, sequence (P53634 25-134): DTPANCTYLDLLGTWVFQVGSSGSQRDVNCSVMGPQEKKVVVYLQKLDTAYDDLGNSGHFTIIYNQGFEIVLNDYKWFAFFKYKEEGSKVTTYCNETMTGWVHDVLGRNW
human DPP1 enzyme, sequence (P53634 231-394): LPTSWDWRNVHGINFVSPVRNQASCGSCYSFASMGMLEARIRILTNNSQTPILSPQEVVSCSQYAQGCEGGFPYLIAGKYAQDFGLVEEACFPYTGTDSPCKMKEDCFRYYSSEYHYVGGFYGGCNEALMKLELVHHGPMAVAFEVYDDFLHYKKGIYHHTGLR
human DPP1 enzyme, sequence (P53634 395-463): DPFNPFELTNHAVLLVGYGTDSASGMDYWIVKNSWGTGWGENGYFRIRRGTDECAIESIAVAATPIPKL

Row | IC50 (human DPP1 enzyme) [nM] | IC50 (mouse DPP1 enzyme) [nM] | SMILES
1 | 39.6 | 51.7 | Cn1c(=O)oc2ccc(-c3ccc(C[C@@H](C#N)NC(=O)[C@@H]4CNC[C@@](C)(O)CO4)cc3)cc21 (relative stereo) [Compound 2-A, (2S,6R*)—N-[(1S)-1-cyano-2-[4-(3-methyl-2-oxo-2,3-dihydro-1,3-benzoxazol-5-yl)phenyl]ethyl]-6-hydroxy-6-methyl-1,4-oxazepane-2-carboxamide]
2 | 145 | 130 | CO[C@@]1(C)CNC[C@@H](C(=O)N[C@H](C#N)Cc2ccc(-c3ccc4oc(=O)n(C)c4c3)cc2)OC1 (relative stereo) [Compound 3-A, (2S,6S*)—N-[(1S)-1-cyano-2-[4-(3-methyl-2-oxo-2,3-dihydro-1,3-benzoxazol-5-yl)phenyl]ethyl]-6-methoxy-6-methyl-1,4-oxazepane-2-carboxamide]
3 | 206 | 251 | CO[C@]1(C)CNC[C@@H](C(=O)N[C@H](C#N)Cc2ccc(-c3ccc4oc(=O)n(C)c4c3)cc2)OC1 (relative stereo) [Compound 3-B, (2S,6R*)—N-[(1S)-1-cyano-2-[4-(3-methyl-2-oxo-2,3-dihydro-1,3-benzoxazol-5-yl)phenyl]ethyl]-6-methoxy-6-methyl-1,4-oxazepane-2-carboxamide]
4 |  | 351 ± 223 | Cn1c(=O)oc2ccc(-c3ccc(C[C@@H](C#N)NC(=O)[C@@H]4CNC[C@](C)(O)CO4)cc3)cc21 (single isomer, unassigned) [drawing 491]
5 |  | 36.9 | CC[C@@]1(O)CNC[C@@H](C(=O)N[C@H](C#N)Cc2ccc(-c3ccc4oc(=O)n(C)c4c3)cc2)OC1 (single isomer, unassigned) [drawing 492]
6 |  | 4040 | CC[C@]1(O)CNC[C@@H](C(=O)N[C@H](C#N)Cc2ccc(-c3ccc4oc(=O)n(C)c4c3)cc2)OC1 (single isomer, unassigned) [drawing 493]
7 |  | > 5000 | CC(C)[C@]1(O)CNC[C@@H](C(=O)N[C@H](C#N)Cc2ccc(-c3ccc4oc(=O)n(C)c4c3)cc2)OC1 (single isomer, unassigned) [drawing 494]
8 |  | 2.36 ± 0.3 | Cn1c(=O)oc2ccc(-c3ccc(C[C@@H](C#N)NC(=O)[C@@H]4CNC[C@@]5(CCO5)CO4)cc3)cc21 (single isomer, unassigned) [drawing 496]
9 |  | > 5000 | CCO[C@@]1(C)CNC[C@@H](C(=O)N[C@H](C#N)Cc2ccc(-c3ccc4oc(=O)n(C)c4c3)cc2)OC1 (single isomer, unassigned) [drawing 503]
10 |  | 1640 | CCO[C@]1(C)CNC[C@@H](C(=O)N[C@H](C#N)Cc2ccc(-c3ccc4oc(=O)n(C)c4c3)cc2)OC1 (single isomer, unassigned) [drawing 504]

Further lines, the molecule ahead of its results:

Row | SMILES | IC50 (human DPP1 enzyme) [nM] | IC50 (mouse DPP1 enzyme) [nM]
11 | Cn1c(=O)oc2ccc(-c3ccc(C[C@@H](C#N)NC(=O)[C@H]4CCCCCNC4)cc3)cc21 (single isomer, unassigned) |  | 54
12 | Cn1c(=O)oc2ccc(-c3ccc(C[C@@H](C#N)NC(=O)[C@@H]4CNCCCCO4)cc3)cc21 (single isomer, unassigned) [drawing 490] |  | 41.4 ± 4.5
13 | Cn1c(=O)oc2ccc(-c3ccc(C[C@@H](C#N)NC(=O)[C@@H]4CNCC5(CCO5)CO4)cc3)cc21 (single isomer, unassigned) [drawing 495] |  | 4.2 ± 0.8
14 | Cn1c(=O)oc2ccc(-c3ccc(C[C@@H](C#N)NC(=O)[C@@H]4CNCCCCO4)cc3)cc21 (single isomer, unassigned) [drawing 497] |  | 33.9 ± 4
15 | CN1CC2(C1)OC(=O)c1ccc(-c3ccc(C[C@@H](C#N)NC(=O)[C@@H]4CNCCCCO4)cc3)cc12 (single isomer, unassigned) [drawing 498] |  | 17.8 ± 2
16 | CCO[C@@H]1CCNC[C@@H](C(=O)N[C@H](C#N)Cc2ccc(-c3ccc4oc(=O)n(C)c4c3)cc2)OC1 (single isomer, unassigned) [drawing 499] |  | 6.05 ± 2
17 | Cn1c(=O)oc2ccc(-c3ccc(C[C@@H](C#N)NC(=O)C4CCCCCNC4)c(F)c3)cc21 (single isomer, unassigned) [drawing 500] |  | 13.1 ± 3.7
18 | Cn1c(=O)oc2ccc(-c3ccc(C[C@@H](C#N)NC(=O)[C@H]4CCCCCNC4)c(F)c3)cc21 (single isomer, unassigned) [drawing 501] |  | 148 ± 16
19 | CO[C@@H]1CCO[C@H](C(=O)N[C@H](C#N)Cc2ccc(-c3ccc4oc(=O)n(C)c4c3)cc2)CNC1 (single isomer, unassigned) [drawing 505] |  | 7.04
20 | Cn1c(=O)oc2ccc(-c3ccc(C[C@@H](C#N)NC(=O)C4CCCCCNC4)cc3)cc21 (stereo partly drawn) [IA] |  | 63.4
21 | Cn1c(=O)oc2ccc(-c3ccc(C[C@@H](C#N)NC(=O)[C@@H]4CCCCCNC4)cc3)cc21 [drawing 502] |  | 629
